The record followed here is patent US20220204473A1, “COMPOUND AS IRAK INHIBITOR” (SHANGHAI MEIYUE BIOTECH DEVELOPMENT CO., LTD., priority 2018, published 2022).

One may read the IC50 as the concentration that gives 50% inhibition.

The subject of data set [1] is TNF-α release in LPS-induced Balb/c female mice. As to the kind of experiment: Inhibition of TNF-α release in LPS-induced Balb/c female mice. It is filed as in vivo, mouse. Details: concentration or dose not given beside the values. To be noted: oral gavage 5 h before LPS induction, serum 1.5 h after stimulation. The method, then:
In the normal control groups, the animals received an intraperitoneal injection of normal saline (10 mL/kg) and in the model groups, the animals received LPS stimulation (Sigma CAT #L2630, i.p., 10 mL/kg, 0.2 mg/kg). During the assay, to the test compounds, DMSO, Solutol and 10 mM PBS were sequentially added to prepare a solution or suspension of required concentration for administration. For the vehicle, DMSO, Solutol and 10 mM PBS were mixed in a volume ratio of 5:15:80. In each of the groups, the animals were administered through oral gavage (10 mL/kg) 5 h before LPS (or saline) stimulation at predetermined doses, and euthanized with CO2 at 1.5 h after the stimulation for cardiac blood collection. The whole blood was not anticoagulated, incubated in wet ice for 1.5 h, and centrifuged at 2000×g at 4° C. for 10 min to separate the serum. The serum was frozen at −80° C. for TNF-α assay. Quantification of the TNF-α was done with TNF-α ELISA kit according to the manufacturer's instruction.

Data set [2] relates to IL-6 release in LPS-induced Balb/c female mice. As to the kind of experiment: Inhibition of IL-6 release in LPS-induced Balb/c female mice. The arrangement: concentration or dose not given beside the values. As to conditions: administered 5 h before LPS induction, serum. The format is in vivo, mouse. The method, then:
Objective of the test: To determine the inhibitory effect of the compounds by measuring the plasma IL-6 concentration in a Balb/c mouse model with LPS-induced inflammation.
2.1 Prepared mouse serum samples (sample batch no. 20181218)
4.1 Reagent kit was equilibrated at room temperature (25-28° C.) for 20 min. After each detection, the remaining reagents were stored at 4° C.
4.3 Preparing reference standard: 1 vial of reference standard substance was added with labeled volume of reference standard diluent. The mixtures were incubated for 15 min at room temperature. Then the mixtures were gently mixed to completely dissolve the substance to prepare a reference standard stock at a final concentration of 1000 μg/mL.
4.4 Dilution of samples: The sample in each group was diluted by […], i.e., a 2-fold dilution with sample assay buffer followed by another two-fold dilution with standard diluent.
4.5 The diluted samples or standards of different concentrations were added into corresponding wells at 100 μL/well respectively, and a background correcting well (or a blank well) was set by adding only TMB buffer and terminating solution. The wells were sealed with a transparent film and incubated at room temperature for 120 min.
4.6 The plate was subjected to 5 washes, each with 300 μL of washing buffer for 15-30 sec. The plate was dried on thick absorbent paper after the last wash.
4.7 Biotinylated antibody was added at 100 μL/well (Note: the biotinylated antibody was prepared in advance and could be used directly without further dilution). The wells were sealed with a transparent film and incubated at room temperature for 60 min.
4.8 The plate was subjected to 5 washes, each with 300 μL of washing buffer for 15-30 sec. The plate was dried on thick absorbent paper after the last wash.
4.9 Horseradish peroxidase-labeled streptavidin was added at 100 μL/well. The wells were sealed with a white film and incubated away from light at room temperature for 20 min.
4.10 The plate was subjected to 5 washes, each with 300 μL of washing buffer for 15-30 sec. The plate was dried on thick absorbent paper after the last wash.
4.11 The chromogenic reagent TMB was added 100 μL/well. The wells were sealed with a white film and incubated away from light at room temperature for 20 min.
4.12 The terminating solution was added at 50 μL/well and A450 value was measured right after mixing.

The target in the next data set is T1, human IRAK4 (Homo sapiens, UniProt Q9NWZ3).
T1 construct: purchased Cama (so in the source)
T1 sequence (Q9NWZ3 1-460): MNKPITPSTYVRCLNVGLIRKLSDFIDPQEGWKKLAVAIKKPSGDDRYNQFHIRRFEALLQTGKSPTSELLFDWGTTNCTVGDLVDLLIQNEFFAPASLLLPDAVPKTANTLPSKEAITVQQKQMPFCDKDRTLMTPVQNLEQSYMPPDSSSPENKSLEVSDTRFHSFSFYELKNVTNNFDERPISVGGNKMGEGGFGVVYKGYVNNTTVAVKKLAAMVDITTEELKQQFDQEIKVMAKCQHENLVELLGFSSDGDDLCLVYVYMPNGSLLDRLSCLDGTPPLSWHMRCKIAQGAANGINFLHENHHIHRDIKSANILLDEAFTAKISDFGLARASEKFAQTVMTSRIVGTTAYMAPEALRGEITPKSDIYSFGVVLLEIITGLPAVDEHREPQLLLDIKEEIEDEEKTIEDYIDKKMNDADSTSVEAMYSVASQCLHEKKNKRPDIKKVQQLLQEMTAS
Nature of the data set: IRAK4 MSA (Mobility-Shift Assay) at Km ATP. It is filed as biochemical. As to conditions: GST-IRAK4 1 nM, ATP 37 μM (Km); read-out: IC50 for inhibiting human IRAK4 kinase. The procedure: A recombinant fusion protein of N-terminal GST (glutathione-S-transferase) and human IRAK4 was used as enzyme (GST-IRAK4, kinase IRAK4 (Cama)) at a final concentration of 1 nM; ATP (Sigma) was at a final concentration of 37 μM; the substrates used for the kinase reaction were a 5-FAM (5-carboxyfluorescein)-labeled polypeptide (5-FAM-[…]-COOH) and a substrate peptide FAM-P8 (GL Biochem) at final concentrations of […].
In this assay, 500 μM solutions of the compounds were prepared in 100% DMSO, and serially 4-fold diluted to the 10th concentration gradient with 100% DMSO, followed by a 10-fold dilution in the compound buffer (50 mM HEPES. pH 7.5, 0.00015% Brij-35) to give intermediate dilutions of the compounds at a final concentration of 10 μM-0.04 nM containing 10% DMSO respectively, 5 μL of the dilutions were transferred into a black 384-well plate respectively.
IRAK4 was diluted to 2.5 nM in the kinase buffer (50 mM HEPES, pH 7.5, 0.00015% Brij-35, 2 mM DTT). 10 μL of the IRAK4 dilution was transferred to the 384-well plate and co-incubated with the compound for 10-15 min.
The substrate and ATP were diluted to 12.5 μM and 92.5 μM with reaction buffer (50 mM HEPES, pH 7.5, 0.00015% Brij-35, 10 mM MgCl2), respectively. 10 μL of the dilutions were transferred to a 384-well plate and incubated at 28° C. for 1 h respectively. The reaction was terminated by adding 25 μL of 50 mM EDTA to the 384-well plate.
The inhibition rates of IRAK4 by the compounds were calculated by measuring the rate of phosphorylated substrate using a Caliper EZ Reader (PerkinElmer) and the IC50 values were calculated by XL-fit software.

A short description of data set [3]: Stability in rat liver microsomes. The format is in vitro ADME. As to conditions: pH 7.4, ∞ = no obvious metabolism found during assay, read-out: Stability test in liver microsomes t1/2, Rat. The method, then: (§1) 1. Preparation of buffer C:
(§2) Buffer A: 1.0 L of 0.1 M monopotassium phosphate buffer (containing 1.0 mM EDTA);
(§3) Buffer A: 1.0 L of 0.1 M dipotassium phosphate buffer (containing 1.0 mM EDTA);
(§4) Buffer C: Buffer A was added to 700 mL of buffer B until pH reached 7.4.
(§5) The test compound and the reference were separately dissolved in DMSO to give 10 mM stocks.
(§6) 500 μM solution: 10 μL of 10 mM stock solution was added to 190 μL of acetonitrile;
(§7) 1.5 μM dosing solution (in liver microsome solution):
(§8) 18.75 μL of 20 mg/mL liver microsomes were added to 479.75 μL of buffer C, followed by 1.5 μL of 500 μM solution. The mixture was gently shaken to mix well.
(§9) NADPH was weighed, to which an appropriate amount of buffer C was added to prepare a 6 mM NADPH solution.
(§10) 5. 30 μL of 1.5 μM dosing solution was added to wells of a 96-well plate set for different time points (0 min, 5 min, 15 min, 30 min, 45 min) in duplicate.
(§11) 6. Preparation of 0 min samples: 135 μL of acetonitrile (containing internal standard) was added to the 0 min wells, followed by 15 μL of 6 mM NADPH solution.
(§12) 7. The 96-well plate containing 1.5 μM dosing solution and NADPH solution were preheated for 5 min in a water bath at 37° C.
(§13) 8. 15 μL of pre-heated 6 mM NADPH solution was added to wells set for 5 min, 15 min, 30 min and 45 min to start the reaction.
(§14) 9. At time points of 5 min, 15 min, 30 min and 45 min, the reaction was terminated by adding 135 μL of acetonitrile (containing internal standard). The mixtures were vortexed for 10 min and centrifuged at 5594×g for 15 min (Thermo Multifuge×3R).
(§15) 10. 50 μL of the supernatant was transferred to wells of a 96-well plate containing 50 μL of water. The samples were mixed and finally subjected to LC-MS/MS analysis.

A short description of data set [4]: Stability in human liver microsomes. The format is in vitro ADME. As to conditions: ∞ = no obvious metabolism found during assay. The method, then: as §1, §2, §3, §4, §5, §6, §7, §8, §9, §10, §11, §12, §13, §14, §15
The nature of data set [5]: Stability in mouse liver microsomes. It is filed as in vitro ADME. To be noted: ∞ = no obvious metabolism found during assay. The method, then:
as §1, §2, §3, §4, §5, §6, §7, §8, §9, §10, §11, §12, §13, §14, §15

The target of a further data set is T2, CYP2C9 (Homo sapiens, UniProt P11712).
T2 construct: tissue Corning (USA); host or cells: mixed human liver microsomes
T2 sequence (P11712 whole entry): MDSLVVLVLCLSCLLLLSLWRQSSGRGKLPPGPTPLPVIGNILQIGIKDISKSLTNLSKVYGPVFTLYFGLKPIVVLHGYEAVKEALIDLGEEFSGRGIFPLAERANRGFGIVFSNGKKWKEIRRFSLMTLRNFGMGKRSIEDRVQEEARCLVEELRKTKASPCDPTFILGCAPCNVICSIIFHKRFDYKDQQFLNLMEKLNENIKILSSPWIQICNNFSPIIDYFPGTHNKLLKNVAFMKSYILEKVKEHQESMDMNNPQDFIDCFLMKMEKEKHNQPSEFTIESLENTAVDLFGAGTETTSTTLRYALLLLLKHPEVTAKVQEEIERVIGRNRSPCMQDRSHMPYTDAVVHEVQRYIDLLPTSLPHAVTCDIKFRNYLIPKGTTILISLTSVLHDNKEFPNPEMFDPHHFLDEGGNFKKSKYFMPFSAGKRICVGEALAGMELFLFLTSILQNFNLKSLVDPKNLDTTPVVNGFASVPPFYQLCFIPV
Nature of the data set: CYP450 inhibition in human liver microsomes, CYP2C9. The format is in vitro ADME. The method, then:
(§16) This study was intended to investigate the inhibitory effect of the test compounds on five major CYP450 enzyme subtypes CYP1A2, 2C9, 2C19, 2D6 and 3A4 in human liver microsomes. The mixed human liver microsomes used in this assay were purchased from Corning (USA). The test compounds were co-incubated at 7 concentrations with human liver microsomes and five probe substrates (phenacetin for CYP1a2, diclofenac for CYP2C9, mephenytoin for CYP2C19, dextromethorphan for CYP2D6, midazolam for CYP3A4-M, mixed). The reaction was initiated by adding coenzyme NADPH, and terminated by adding acetonitrile containing internal standard. After the proteins were precipitated, the supernatant was centrifuged. The characteristic metabolites in the supernatant (acetaminophen for CYP1A2, 4-hydroxydiclofenac for CYP2C9, 4-hydroxymephenytoin for CYP2C19, dextrorphan for CYP2D6, 1-hydroxymidazolam for CYP3A4-M) were analyzed by LC-MS/MS. The influence of the test compounds on production of the characteristic metabolites was finally analyzed on the basis of the data obtained. A selective inhibitor (ketoconazole for CYP3A4-M) was used as positive control. All samples were tested in duplicate.
Background: Liver microsomes are vesicles of endoplasmic reticulum, rich in cytochrome P450 enzymes.

In a further data set the target is T3, CYP2C19 (Homo sapiens, UniProt P33261).
T3 construct: tissue Corning (USA); host or cells: mixed human liver microsomes
T3 sequence (P33261 whole entry): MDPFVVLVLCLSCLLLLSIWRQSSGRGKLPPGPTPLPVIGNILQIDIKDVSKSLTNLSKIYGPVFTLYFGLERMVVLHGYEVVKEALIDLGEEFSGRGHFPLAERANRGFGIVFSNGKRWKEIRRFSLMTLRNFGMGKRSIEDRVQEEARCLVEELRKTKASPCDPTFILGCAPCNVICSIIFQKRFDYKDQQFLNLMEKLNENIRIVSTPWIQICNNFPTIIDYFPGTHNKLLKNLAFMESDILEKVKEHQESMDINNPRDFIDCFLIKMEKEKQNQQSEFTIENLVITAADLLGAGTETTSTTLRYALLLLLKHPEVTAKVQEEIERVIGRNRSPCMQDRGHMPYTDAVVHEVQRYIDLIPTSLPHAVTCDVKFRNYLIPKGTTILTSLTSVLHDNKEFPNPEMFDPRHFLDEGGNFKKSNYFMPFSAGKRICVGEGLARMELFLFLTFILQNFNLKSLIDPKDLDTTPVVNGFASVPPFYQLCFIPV
As to the kind of experiment: CYP450 inhibition in human liver microsomes, CYP2C19. It is filed as in vitro ADME. The procedure: as §16

The target in the next data set is T4, CYP1A2 (Homo sapiens, UniProt P05177).
T4 construct: tissue Corning (USA); host or cells: mixed human liver microsomes
T4 sequence (P05177 1-516): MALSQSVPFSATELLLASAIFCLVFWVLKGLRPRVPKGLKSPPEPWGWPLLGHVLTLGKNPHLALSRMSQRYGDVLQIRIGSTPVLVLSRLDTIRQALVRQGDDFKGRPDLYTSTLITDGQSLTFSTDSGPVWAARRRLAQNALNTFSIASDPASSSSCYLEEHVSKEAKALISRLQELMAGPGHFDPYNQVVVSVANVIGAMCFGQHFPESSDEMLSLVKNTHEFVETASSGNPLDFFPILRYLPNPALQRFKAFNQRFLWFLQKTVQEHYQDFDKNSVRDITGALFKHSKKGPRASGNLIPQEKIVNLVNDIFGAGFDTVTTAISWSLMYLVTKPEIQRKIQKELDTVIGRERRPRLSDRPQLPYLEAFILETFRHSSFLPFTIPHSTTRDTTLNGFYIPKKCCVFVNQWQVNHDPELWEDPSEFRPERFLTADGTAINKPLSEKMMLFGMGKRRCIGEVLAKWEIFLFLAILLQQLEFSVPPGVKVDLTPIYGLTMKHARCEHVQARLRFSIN
As to the kind of experiment: CYP450 inhibition in human liver microsomes, CYP1A2. It is filed as in vitro ADME. The method, then: as §16

The next data set has as its target T5, CYP2D6 (Homo sapiens, UniProt P10635).
T5 construct: tissue Corning (USA); host or cells: mixed human liver microsomes
As to the kind of experiment: CYP450 inhibition in human liver microsomes, CYP2D6. The format is in vitro ADME. The method, then: as §16

For a further data set, the target named is T6, CYP3A4 (Homo sapiens, UniProt P08684).
T6 construct: tissue Corning (USA); host or cells: mixed human liver microsomes
T6 sequence (P08684 whole entry): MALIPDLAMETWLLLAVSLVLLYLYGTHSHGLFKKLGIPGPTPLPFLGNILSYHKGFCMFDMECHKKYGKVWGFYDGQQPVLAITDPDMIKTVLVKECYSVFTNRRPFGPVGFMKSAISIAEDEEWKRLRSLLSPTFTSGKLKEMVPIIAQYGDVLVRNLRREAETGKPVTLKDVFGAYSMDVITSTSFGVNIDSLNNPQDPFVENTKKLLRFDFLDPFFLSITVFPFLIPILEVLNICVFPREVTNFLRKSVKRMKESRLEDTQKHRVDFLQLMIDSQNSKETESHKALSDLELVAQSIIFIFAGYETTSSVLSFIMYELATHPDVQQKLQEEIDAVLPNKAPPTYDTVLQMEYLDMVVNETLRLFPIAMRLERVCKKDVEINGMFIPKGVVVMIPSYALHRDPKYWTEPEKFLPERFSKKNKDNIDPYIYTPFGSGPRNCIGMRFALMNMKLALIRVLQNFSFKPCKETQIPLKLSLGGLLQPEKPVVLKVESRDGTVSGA
As to the kind of experiment: CYP450 inhibition in human liver microsomes, CYP3A4. It is filed as in vitro ADME. The method, then:
as §16

T5 sequence (P10635 whole entry): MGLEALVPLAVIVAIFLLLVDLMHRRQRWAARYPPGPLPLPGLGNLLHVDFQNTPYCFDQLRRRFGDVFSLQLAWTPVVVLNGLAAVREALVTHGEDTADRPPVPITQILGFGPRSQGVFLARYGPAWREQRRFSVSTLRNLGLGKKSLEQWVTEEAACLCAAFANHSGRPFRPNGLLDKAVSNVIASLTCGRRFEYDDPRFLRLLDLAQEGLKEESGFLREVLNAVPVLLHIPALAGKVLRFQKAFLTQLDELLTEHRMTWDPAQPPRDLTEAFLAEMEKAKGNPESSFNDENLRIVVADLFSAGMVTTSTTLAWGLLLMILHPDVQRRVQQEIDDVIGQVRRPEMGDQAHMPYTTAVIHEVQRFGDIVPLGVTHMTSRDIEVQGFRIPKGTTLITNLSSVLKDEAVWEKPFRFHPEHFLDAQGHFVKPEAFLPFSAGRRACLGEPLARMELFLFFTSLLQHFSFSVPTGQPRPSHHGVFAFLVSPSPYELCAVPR

As to `COc1cc2nn([C@H]3C[C@H](C(C)(C)O)C3)cc2cc1NC(=O)c1cccc(C(F)F)n1` [MY-004-115], the “Inhibition rate of TNF-α” value in data set [1] came out at 89.59%. For the same compound, the “Inhibition rate of IL-6” value in data set [2] worked out at 93.35%. Further, the IC50 on human IRAK4 was 0.002 µM.
In the case of `CC(C)(O)[C@H]1C[C@H](n2cc3cc(NC(=O)c4cccc(C(F)(F)F)n4)c(-n4cccn4)cc3n2)C1` [MY-004-144], in data set [3], the half-life at 1 μM turned out to be 11.4 h. In addition, in data set [4], the “Stability test in liver microsomes t1/2, Human” value is on record as “∞”. In addition, in data set [5], the “Stability test in liver microsomes t1/2, Mouse” value was “∞”. Moreover, on human IRAK4, the IC50 is 0.0044 µM.
Turning to `CC(C)(O)CCn1cc2cc(NC(=O)c3cccc(C(F)(F)F)n3)c(C(C)(C)O)cc2n1` [MYA, reference compound], the IC50 on CYP2C9 is 19.1 µM; against CYP2C19, 23.5 µM; against CYP1A2 it was 2.91 µM; on CYP2D6 it was > 30 µM; on CYP3A4, > 30 µM.
